The values that follow come from PMC11191095, “QSAR Reveals Decreased Lipophilicity of Polar Residues Determines the Selectivity of Antimicrobial Peptide Activity” (ACS Omega, 2024).

Where a SMILES comes first, the peptide text is derived from it.

Series [1] relates to HaCat cell line. In words: In vitro HaCat cytotoxicity (MTT). Type of series: cell-based, human. As to conditions: 21 h exposure, OD570, relative to untreated control. An outline of the steps:
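HaCat keratinocytes were first screened with peptide at 256 μg/mL for 21 h at 37 °C, and a dose-response was run only when cytotoxicity reached p < 0.0001. Viability was read by MTT (3 h, OD570) relative to untreated control, and LC50 was taken from the dose-response curves.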

A short description of series [2]: RP-HPLC ElutionTime as indicator of hydrophobicity. Type of series: physicochemical. As to conditions: indicator of overall hydrophobicity; semipreparative RP-HPLC, Waters SymmetryPrep C8, water/ACN gradient with 0.1% TFA, 8 mL/min, 25 °C, 254 nm. As for the experimental part:
Crude peptides, made up to 10 mg/mL in 0.1% TFA (v/v) in ddH2O, were subjected to preparative RP-HPLC purification on an Agilent 1100 system, with elution in gradient. A gradient program at a flow rate of 8 mL/min and column temperature of 25 °C was used to achieve elution with solvent A (0.1% trifluoroacetic acid (TFA) in water (v/v)) and solvent B (0.1% TFA in 100% acetonitrile (ACN) (v/v)). The elution program was as follows: (1) At 0–73 min, 100% solvent A to 0% solvent B; (2) at 73–77 min, 40% solvent A to 60% solvent B; (3) at 77–93 min, 10% solvent A to 90% solvent B; (4) at 93–105 min, 100% solvent A to 0% solvent B. Data collected were the retention time of the major fraction for each peptide in minutes as RP-HPLC ElutionTime (ElutionTime). Absorbance was detected at 254 nm, and fractions were collected manually. The fractions collected were spun in a speed-vac to remove ACN and the contents lyophilized. After freeze-drying for 24 h the peptides were dissolved in 10% (v/v) acetic acid before being lyophilized for a second time and then stored at −20 °C.
Molecular descriptors used in the QSAR analysis included: charge, sequence length, overall lipophilicity (L), lipophilicity contributed by the polar or nonpolar residues (LP and LN), summation of the side chain surface areas of the total peptide, polar or nonpolar residues (SCSA, SCSAP, and SCSAN), the molecular weight of the entire peptide, polar or nonpolar residues (Mw, MwP, and MwN), count of small lipophilic residues (CSL) or aromatic residues (CAR), the total number of hydrogen bond donor and acceptor centers (HBtot, HBdon, and HBacc), the total number of rotatable bonds (#RotBonds) and various amphipathicity descriptors (LP/L, LP/LN, L/LN, Q/L, Q/LN, SCSAP/SCSAN, MwP/MwN, Q/CSL, and Q/CAR) (Suppl. Table S1). Experimentally determined characteristics included ElutionTime as an indicator of overall peptide hydrophobicity and the CD structure of each peptide determined in POPG/POPE lipids representing Gram-negative membranes, POPG lipids for Gram-positive membranes, and SDS micelles for fungal membranes. AMPs with an α-helical structure were labeled 4, β-sheets were labeled 3, β-turns and mixed conformations were labeled 2, and disordered structures were labeled 1.

In series [3] the test system is C. auris TDG 1912. As to the kind of experiment: microbe, parasite or virus in culture. Type of series: cell-based, Candida auris. An outline of the steps: (§1)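 Peptides 128→2 μg/mL, 2-fold series; inoculum ~5 × 10^5 CFU/mL from overnight culture (OD600 0.01, mixed 1:1). MHB non-cation-adjusted for bacteria, RPMI 1640 + 2% glucose for fungi. 37 °C, 20 h, OD600. MIC50/MIC90 at 50%/90% inhibition; n ≥ 3.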

Series [4] deals with P. aeruginosa PAO1. As to the kind of experiment: microbe, parasite or virus in culture. The class given is cell-based, Pseudomonas aeruginosa. As to conditions: P. aeruginosa PAO1 (S). An outline of the steps: as §1

For the compound `CC(C)[C@H](NC(=O)CNC(=O)[C@H](CCCNC(=N)N)NC(=O)[C@H](CCCNC(=N)N)NC(=O)[C@H](CS)NC(=O)[C@@H](NC(=O)[C@H](CS)NC(=O)[C@@H](N)CCCNC(=N)N)C(C)C)C(=O)N[C@@H](CS)C(=O)N[C@@H](CCCNC(=N)N)C(=O)N[C@@H](CS)C(=O)N[C@H](C(=O)N[C@@H](CS)C(=O)N[C@@H](CCCNC(=N)N)C(=O)N[C@@H](CCCNC(=N)N)C(N)=O)C(C)C` [BTD15a] (H-RCVCRRGVCRCVCRR-NH2; N-terminus assumed), the “% HaCat cell death at initial screening (256μg/mL) ± SD” value in series [1] is 20%. Also, the “ElutionTime (RP-HPLC retention time of major fraction)” value in series [2] came to 20 min. Besides, in series [3] (TDG 1912, 20 h), the “Modal MIC50” value is more than 70.2 µM and the “Modal MIC90” value is reported as more than 70.2 µM.

With `C[C@H](NC(=O)CNC(=O)[C@H](CCCCN)NC(=O)[C@@H](N)CS)C(=O)N[C@@H](Cc1ccccc1)C(=O)N[C@@H](CCCCN)C(=O)N[C@@H](CCC(N)=O)C(=O)N[C@H](C(=O)N[C@@H](CS)C(=O)N[C@@H](CCCCN)C(=O)N[C@@H](CS)C(=O)N[C@@H](Cc1ccc(O)cc1)C(N)=O)[C@@H](C)O` [Os(11-22)a] (H-CKGAFKQTCKCY-NH2; N-terminus assumed), the “% HaCat cell death at initial screening (256μg/mL) ± SD” value in series [1] worked out at 59.5 ±13.9%; in series [1] (listed as Os(11–22)a), 59.5%. In addition, in series [2], the “ElutionTime (RP-HPLC retention time of major fraction)” value is recorded as 21,3 min. Also, the “Modal MIC” value in series [4] (MHB, 37 °C, 20 h, OD600, min. three biological repeats) is given as more than 128 µg/mL; in series [4] (shown in µM), more than 91.7 µM. Besides, the “Modal MIC50” value in series [3] (C. auris TDG 1912, 50% growth inhibition, RPMI 1640 + 2% glucose, 37 °C, 20 h, OD600) is reported as more than 128 µg/mL; in series [3] (C. auris TDG 1912, shown in µM), more than 91.7 µM. The “Modal MIC90” value was more than 128 µg/mL in series [3] (C. auris TDG 1912, 90% growth inhibition, RPMI 1640 + 2% glucose, 37 °C, 20 h, OD600) and more than 91.7 µM in series [3] (C. auris TDG 1912, shown in µM).
